From paper PMC12410356 (International Journal for Parasitology: Drugs and Drug …, 2025)

What was measured:
[1] = test system: E. multilocularis metacestode vesicles; assay: Phosphoglucose isomerase (PGI) release assay (damage-marker release) on metacestode vesicles; assay type: cell-based, Echinococcus multilocularis; conditions: 10 μM; for PGI d5 (relative PGI release): 5 days; for PGI d12 (relative PGI release): 12 days
Protocol: In order to quantify the drug-induced damage on whole metacestode vesicles, phosphoglucose isomerase (PGI) assay was performed as described previously ([Stadelmann et al., 2010]) with few adaptations published recently ([Kaethner et al., 2023]). In short, 8 to 12 weeks-old metacestode vesicles were purified using 2 % sucrose with subsequent washes in PBS. Metacestode vesicles were diluted in two volumes of DMEM without phenol red containing penicillin (100 U/mL) and streptomycin (100 μg/mL). […] 0.1 % DMSO was used as a negative solvent control and 0.1 % Triton X-100 was used as a positive total damage control. Metacestode vesicles were incubated under a humid, 5 % CO2 atmosphere at 37 °C. After five and twelve days, supernatant was taken and pictures were made using a Nikon SMZ18 stereo microscope (Nikon, Basel, Switzerland) at 7.5 × magnification. PGI activity in the supernatants was measured on a HIDEX Sense microplate reader (Hidex, Turku, Finland). The corresponding values of the DMSO controls were subtracted from the values of the compounds and then PGI activity was calculated relative to 0.1 % Triton X-100. […] IC50 values were calculated applying the 3 parameter Weibull type 1 in R for each of the three independent experiments ([Ritler et al., 2020]).

[2] = test system: E. multilocularis metacestode vesicles; assay: Metacestode vesicle viability assay (ATP, CellTiter-Glo); assay type: cell-based, Echinococcus multilocularis; conditions: 10 μM, 12 days
Protocol: Viability was assessed after 12 days using the same metacestode vesicles as for the PGI release assay. Triton X-100 was added to each well to a final concentration of 0.1 %. Subsequently the metacestode vesicles were broken mechanically and 50 μL of the supernatant was mixed with 50 μL of CellTiter-Glo® buffer (Promega, Dübendorf, Switzerland). Measurements were performed on a HIDEX Sense microplate reader.

[3] = overview screen, singlets, relative to 0.1 % Triton X-100, DMSO subtracted
[4] = overview screen, singlets, relative to DMSO control
[5] = confirmation screen, triplicates, mean

SMILES	PGI d5 (relative PGI release) [1, 3] [%]	PGI d12 (relative PGI release) [1, 3] [%]	Viability d12 (relative viability) [2, 4] [%]	PGI d5 (relative PGI release) [1, 5] [%]	PGI d12 (relative PGI release) [1, 5] [%]	Viability d12 (relative viability) [2, 5] [%]
Nc1nnc(-c2ccc(Cl)cc2)s1 [MMV046261]	0.5147	3.499	11.5226			
NC(=O)c1c(N)sc2c1CCCCC2 [MMV056052]	0.2417	3.2439	78.9817			
CC1CN(c2ncnc3c2c(-c2ccccc2)cn3-c2ccc(F)cc2)CC(C)O1 (stereo not drawn) [MMV093250]	0.6968	49.8105	6.513	0.08	-0.45	29.29
COc1cc(NS(=O)(=O)c2ccc(C)cc2)c2ncccc2c1 [MMV098836]	-0.2103	2.3899	72.5053			
Nc1c(C(=O)NCc2ccco2)c2nc3ccccc3nc2n1CCN1CCCCC1 [MMV099714]	2.984	44.8288	63.8129			
COc1cc2c(O)c3c(c(-c4ccc5c(c4)OCO5)c2cc1OC)C(=O)OC3 [MMV102270]	-1.791	18.1463	116.78			
O=C(Nc1nnc(-c2ccc(Cl)cc2)o1)c1nc2ccccc2s1 [MMV102833]	3.0788	1.422	141.762			
CC(C)Nc1ncnc2c1cnn2-c1ccc(Cl)cc1 [MMV108465]	-2.878	28.117	65.6735			
CCOc1ccc(C(=O)NCCc2ccccc2)cc1 [MMV124656]	-0.3368	10.9951	194.706			
Clc1cccc(-c2nnc(-c3ccccc3)o2)c1 [MMV141011]	-1.462	-13.7141	31.8959			
NC1C2CC3CC(C2)CC1C3 (stereo not drawn) [MMV180402]	-0.5217	-14.4779	111.504			
O=C(CC1Sc2ncnn2C1=O)Nc1ccc(Br)cc1 (stereo not drawn) [MMV214956]	-1.614	-20.0728	47.1606			
O=C(O)CSc1cc(NS(=O)(=O)c2cccc3cccnc23)c2ccccc2c1O [MMV218827]	-0.1296	0.539	73.5027			
Cc1ccc(S(=O)(=O)Nc2cccc3cccnc23)cc1 [MMV233495]	2.157	26.0665	70.919			
O=C(O)c1cc(-c2ccc(Br)cc2)nc2ccc(Cl)cc12 [MMV247764]	0.5774	-0.4305	115.677			
O=S(=O)(Nc1ccc(O)cc1)c1cccc2cccnc12 [MMV251679]	0.1251	-17.8593	83.9227			
CCN1CCN(Cc2nc3ccc([N+](=O)[O-])cc3c(=O)n2-c2ccccc2F)CC1 [MMV275100]	0.006823	-0.1551	107.175			
Oc1ccc2[nH]c(-c3ccccc3)nc2c1 [MMV292173]	-3.6461	2.293	56.2358			
COc1ccc(CNC(=O)C(NS(=O)(=O)c2ccc3nc(C)sc3c2)C(C)C)cc1 (stereo not drawn) [MMV303733]	-2.8306	-9.3435	97.8993			
COc1ccc(NC(=O)c2cc3ccccn3n2)cc1 [MMV374187]	0.2305	3.37	96.2395			
